In brackets after ≈: the same amount, converted by molar mass.
Experiments:
[1] = system: Mycobacterium tuberculosis; test: Antimycobacterial activity against isoniazid/rifampicin-resistant Mycobacterium tuberculosis isolate 16833 after 7 days by microplate alamar blue assay; type: functional; settings: isolate 16833, 168 h
[2] = system: Mycobacterium tuberculosis; test: Antimycobacterial activity against isoniazid/rifampicin-resistant Mycobacterium tuberculosis isolate 16995 after 7 days by microplate alamar blue assay; type: functional; settings: isolate 16995, 168 h

SMILES	MIC [1]	MIC [2]
CCc1nc2ccc(Cl)cn2c1C(=O)NCc1ccc2c(c1)CCN(Cc1ccc(C)cc1)C2	< 0.035 µM	< 0.035 µM
CCc1nc2cc(Cl)ccn2c1C(=O)NCc1ccc2c(c1)CCN(CCc1ccc(C(F)(F)F)cn1)C2	< 0.035 µM	0.061 µM (≈ 0.0331 µg/mL)
CCc1nc2ccc(Cl)cn2c1C(=O)NCc1ccc2c(c1)CCN(CCc1ccc(C(F)(F)F)cn1)C2	< 0.035 µM	< 0.035 µM
CCc1nc2ccc(Cl)cn2c1C(=O)NCc1ccc2c(c1)CCN(Cc1ccc(C(C)(C)C)cc1)C2	< 0.035 µM	< 0.035 µM
CCc1nc2ccc(Cl)cn2c1C(=O)NCc1ccc2c(c1)CCN(Cc1ccc(OC)cc1)C2	< 0.035 µM	< 0.035 µM
CCc1nc2ccc(Cl)cn2c1C(=O)NCc1ccc2c(c1)CCN(Cc1cc(F)cc(F)c1)C2	< 0.035 µM	< 0.035 µM
CCc1nc2ccc(Cl)cn2c1C(=O)NCc1ccc2c(c1)CCN(Cc1ccc(C(F)(F)F)cn1)C2	0.049 µM (≈ 0.0259 µg/mL)	0.046 µM (≈ 0.0243 µg/mL)
CCc1nc2ccc(Cl)cn2c1C(=O)NCc1ccc2c(c1)CN(Cc1ccc(OC(F)(F)F)cc1)C2	< 0.035 µM	< 0.035 µM
CCc1nc2ccc(Cl)cn2c1C(=O)NCc1ccc2c(c1)CN(C(C)c1ccc(OC(F)(F)F)cc1)C2 (centres undefined)	< 0.035 µM	< 0.035 µM
CCc1nc2cc(Cl)ccn2c1C(=O)NCc1ccc2c(c1)CCN(Cc1ccc(OC)cc1)C2	0.096 µM (≈ 0.0469 µg/mL)	0.9 µM (≈ 0.44 µg/mL)
O=c1nc(N2CCN(CC3CCCCC3)CC2)sc2c([N+](=O)[O-])cc(C(F)(F)F)cc12 [MACOZINONE]	< 0.035 µM	< 0.035 µM
CCc1nc2ccc(Cl)cn2c1C(=O)NCc1ccc2c(c1)CCN(Cc1ccc(F)cc1)C2	< 0.035 µM	< 0.035 µM
CO[C@H]1/C=C/O[C@@]2(C)Oc3c(C)c(O)c4c(O)c(c(/C=N/N5CCN(C)CC5)c(O)c4c3C2=O)NC(=O)/C(C)=C\C=C\[C@H](C)[C@H](O)[C@@H](C)[C@@H](O)[C@@H](C)[C@H](OC(C)=O)[C@@H]1C [RIFAMPIN]	> 40 µM	> 40 µM
CCc1nc2cc(Cl)ccn2c1C(=O)NCc1ccc2c(c1)CCN(Cc1ccc([N+](=O)[O-])o1)C2	1.24 µM (≈ 0.612 µg/mL)	0.44 µM (≈ 0.217 µg/mL)
CCc1nc2ccc(Cl)cn2c1C(=O)NCc1ccc2c(c1)CCN(Cc1ccc(C(F)(F)F)nc1)C2	< 0.035 µM	0.047 µM (≈ 0.0248 µg/mL)
CCc1nc2ccc(Cl)cn2c1C(=O)NCc1ccc(N2CCC(c3ccc(OC(F)(F)F)cc3)CC2)cc1 [TELACEBEC]	< 0.035 µM	< 0.035 µM
CCc1nc2ccc(Cl)cn2c1C(=O)NCc1ccc2c(c1)CCN(Cc1ccc(Br)cc1)C2	< 0.035 µM	< 0.035 µM
CCc1nc2ccc(Cl)cn2c1C(=O)NCc1ccc2c(c1)CCN(Cc1ccc(C(F)(F)F)cc1)C2	< 0.035 µM	< 0.035 µM
CCc1nc2cc(Cl)ccn2c1C(=O)NCc1ccc2c(c1)CCN(Cc1cc(F)cc(F)c1)C2	0.095 µM (≈ 0.047 µg/mL)	0.11 µM (≈ 0.0544 µg/mL)
NNC(=O)c1ccncc1 [ISONIAZID]	> 40 µM	> 40 µM
CCc1nc2ccc(Cl)cn2c1C(=O)NCc1ccc2c(c1)CCN(CCc1ccc(C(F)(F)F)nc1)C2	< 0.035 µM	< 0.035 µM
CCc1nc2cc(Cl)ccn2c1C(=O)NCc1ccc2c(c1)CCN(Cc1ccc(C(C)(C)C)cc1)C2	< 0.035 µM	< 0.035 µM

Reference: ChEMBL document CHEMBL4411339, “Design, synthesis and antimycobacterial activity of less lipophilic Q203 derivatives containing alkaline fused ring moieties” (Bioorg Med Chem, 2019)
